Experimental data published in patent US20200230074A1, “NICOTINE-CONTAINING TRANSPARENT TRANSDERMAL THERAPEUTIC SYSTEM” (LTS Lohmann Theraple-Systeme AG, priority 2017, published 2020).

Experiments:
[1] = Storage of nicotine Eudragit E 100 solutions with antioxidants, visual colour (Pantone Colour Code); format: physicochemical; settings: stored in the dark 4 weeks at 60° C. or 80° C.
Excerpt: Since polyisobutylenes contain terminal double bonds and therefore have to be stabilised by the antioxidant butyl hydroxytoluene, it was examined whether the avoidance of nicotine discolouration can be achieved by antioxidants. Pharmaceutically acceptable antioxidants were therefore added to nicotine in graded-concentrations in 2 test series to form solutions of Eudragit E 100 (cationic copolymer based on dimethylaminoethyl methacrylate, butyl methacrylate and methyl methacrylate in a ratio of 2:1:1). These solutions were stored in the dark for 4 weeks at 60° C. or 80° C.
Butyl hydroxytoluene (BHT), ascorbyl palmitate and tocopherol were tested as antioxidants.
The samples were examined visually after storage, and the relevant Pantone Colour Code for the colour of the sample was determined. The Pantone Colour Code is an internationally used colour system developed by the company Pantone LLC, USA. As a result it is possible to determine that the antioxidants were unable to suppress the discolouration of the nicotine.

[2] = Analysis of nicotine degradation products in stored samples; format: physicochemical; settings: conclusion from degradation products
Protocol: In order to check which decomposition products of nicotine cause the brown colour, sample Nic 0007 was analysed.

CCCCCCCCCCCCCCCC(=O)OC[C@H](O)[C@H]1OC(=O)C(O)=C1O [ascorbyl palmitate]
suppression of the discolouration of nicotine [1]: does not prevent the brown colouration of nicotine
decomposition of nicotine [2]: does prevent its decomposition
